Reference: patent publication US20260364089A1, “PYRIDOPYRIMIDINE KRAS INHIBITORS” (Treeline Biosciences, Inc., priority 2022, published 2026)

Target: T1, KRas G12V (Homo sapiens, UniProt P01116, G12V)
T1 construct: Biotinylated KRas G12V (aa 1-169) loaded with GDP nucleotide; biotin (biotinylated)
Test: SOS1-Catalyzed Nucleotide Exchange Assay, KRas G12V (Method 2)
Type: biochemical
Settings: Method 2, B; 5 nM KRas G12V (aa 1-169, GDP-loaded), 50 nM SOS1; read-out: KRas G12V IC50 (nM) (Method 2, B)
Experimental: KRas G12V [Method 2]: Compounds were pre-dispensed via Echo liquid handling (acoustic, touch-free) to generate assay ready plates (ARP). More precisely, a 10-point concentration response curve for each compound was prepared with appropriate top concentration (1 μM, 10 μM, 100 μM). Biotinylated KRas G12V (aa 1-169) loaded with GDP nucleotide and Streptavidin-Europium (SA-EU, Columbia Biosciences) were preincubated in assay buffer (20 mM HEPES pH 7.4, 150 mM NaCl, 5 mM MgCl2, 1 mM DTT, 0.01% Brij-35, 0.3 mg/mL BSA) on ice for 30 min. Separately SOS1 (aa 546-1049) and EDA-GTP-DY647P1 (Jena Bioscience) were preincubated in assay buffer on ice for 30 min. After 30 minutes of incubation for the assay components, 5 μL buffer and 5 μL of KRas G12V-SA-Eu were added to each well of the ARP. After a further 30 min, 5 μL of SOS1-EDA-GTP-D467P1 was added to start the nucleotide exchange reaction. Final concentration in the assay were 5 nM KRas G12V, 50 nM SOS1 (aa 564-1049). The reaction was allowed to proceed for 60-90 minutes after which the plate was read on a plate reader. After normalization of the raw data, the data was fit to a four-parameter logistic curve.

T1 sequence (P01116 1-169 G12V): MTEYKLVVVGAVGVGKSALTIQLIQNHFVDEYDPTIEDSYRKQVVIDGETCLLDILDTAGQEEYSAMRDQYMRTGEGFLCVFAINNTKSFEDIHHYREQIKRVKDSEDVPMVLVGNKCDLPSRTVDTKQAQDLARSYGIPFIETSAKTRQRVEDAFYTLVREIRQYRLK

Row | SMILES | IC50 [nM]
1 | Nc1cc(Cl)c2c(c1)-c1ccc3c(nc(OC[C@@]45CCCN4C[C@H](F)C5)nc3c1F)N1CCCC(CCNC(=O)CCCC2)C1 (stereo partly drawn) [Compound 165a, 3^5-amino-3^3-chloro-2^8-fluoro-2^2-(((2R,7aS)-2-fluorotetrahydro-1H-pyrrolizin-7a(5H)-yl)methoxy)-9-aza-2(4,7)-quinazolina-1(1,3)-piperidina-3(1,2)-benzenacycloundecaphan-8-one] | ≤ 100
2 | O=C1CCCCc2ccc3[nH]ncc3c2-c2ccc3c(nc(OC[C@@]45CCCN4C[C@H](F)C5)nc3c2F)N2CCCC(CCN1)C2 (stereo partly drawn) [Compound 166a, 2^8-fluoro-2^2-(((2R,7aS)-2-fluorotetrahydro-1H-pyrrolizin-7a(5H)-yl)methoxy)-1^1H-6-aza-2(7,4)-quinazolina-1(4,5)-indazola-3(1,3)-piperidinacycloundecaphan-7-one] | ≤ 100
3 | O=C1CCCCc2ccc3[nH]ncc3c2-c2ncc3c(nc(OC[C@@]45CCCN4C[C@H](F)C5)nc3c2F)N2CCCC(CCN1)C2 (stereo partly drawn) [Compound 167a, 2^8-fluoro-2^2-(((2R,7aS)-2-fluorotetrahydro-1H-pyrrolizin-7a(5H)-yl)methoxy)-1^1H-6-aza-2(7,4)-pyrido[4,3-d]pyrimidina-1(4,5)-indazola-3(1,3)-piperidinacycloundecaphan-7-one] | ≤ 100
4 | O=C1CCCc2c(F)ccc3cccc(c23)-c2ncc3c(nc(OC[C@@]45CCCN4C[C@H](F)C5)nc3c2F)N2CCCC(CCN1)C2 (stereo partly drawn) [Compound 170a, 2^8,3^7-difluoro-2^2-(((2R,7aS)-2-fluorotetrahydro-1H-pyrrolizin-7a(5H)-yl)methoxy)-8-aza-2(4,7)-pyrido[4,3-d]pyrimidina-1(1,3)-piperidina-3(1,8)-naphthalenacyclodecaphan-7-one] | ≤ 100
5 | CN1CCC[C@H]1COc1nc2c3cnc(c(F)c3n1)-c1cc(N)cc(Cl)c1CCCCC(=O)NCCC1CCCN2C1 (stereo partly drawn) [Compound 171a, 3^5-amino-3^3-chloro-2^8-fluoro-2^2-(((S)-1-methylpyrrolidin-2-yl)methoxy)-9-aza-2(4,7)-pyrido[4,3-d]pyrimidina-1(1,3)-piperidina-3(1,2)-benzenacycloundecaphan-8-one] | 100 to 1000
6 | Nc1cc2c(c(Cl)c1F)CCCCC(=O)NCCC1CCCN(C1)c1nc(OC[C@@]34CCCN3C[C@H](F)C4)nc3c(F)c-2ncc13 (stereo partly drawn) [Compound 172a, 3^5-amino-3^3-chloro-2^8,3^4-difluoro-2^2-(((2R,7aS)-2-fluorotetrahydro-1H-pyrrolizin-7a(5H)-yl)methoxy)-9-aza-2(4,7)-pyrido[4,3-d]pyrimidina-1(1,3)-piperidina-3(1,2)-benzenacycloundecaphan-8-one] | ≤ 100
7 | O=C1CCCc2c(F)ccc3cc(O)cc(c23)-c2ncc3c(nc(OC[C@@]45CCCN4C[C@H](F)C5)nc3c2F)N2CCOCC(CN1)C2 (stereo partly drawn) [Compound 173a, 2^8,3^7-difluoro-2^2-(((2R,7aS)-2-fluorotetrahydro-1H-pyrrolizin-7a(5H)-yl)methoxy)-3^3-hydroxy-8-aza-1(4,6)-oxazepana-2(4,7)-pyrido[4,3-d]pyrimidina-3(1,8)-naphthalenacyclononaphan-7-one] | ≤ 100
8 | Nc1cc2c(c(Cl)c1F)CCCCC(=O)NCCC1CCCN(C1)c1nc(OC[C@@]34CCCN3C[C@H](F)C4)nc3c(F)c-2ccc13 (stereo partly drawn) [Compound 174a, 3^5-amino-3^3-chloro-2^8,3^4-difluoro-2^2-(((2R,7aS)-2-fluorotetrahydro-1H-pyrrolizin-7a(5H)-yl)methoxy)-9-aza-2(4,7)-quinazolina-1(1,3)-piperidina-3(1,2)-benzenacycloundecaphan-8-one] | 100 to 1000
9 | O=C1CCCc2c(F)ccc3cc(O)cc(c23)-c2ccc3c(nc(OC[C@@]45CCCN4C[C@H](F)C5)nc3c2F)N2CCCC(CCN1)C2 (stereo partly drawn) [Compound 175a, 2^8,3^7-difluoro-2^2-(((2R,7aS)-2-fluorotetrahydro-1H-pyrrolizin-7a(5H)-yl)methoxy)-3^3-hydroxy-8-aza-2(4,7)-quinazolina-1(1,3)-piperidina-3(1,8)-naphthalenacyclodecaphan-7-one] | ≤ 100
10 | CN1CCC[C@H]1CCOc1nc2c3cnc(c(F)c3n1)-c1cc(N)cc(Cl)c1CCCCC(=O)NCCC1CCCN2C1 (stereo partly drawn) [Compound 176a, 3^5-amino-3^3-chloro-2^8-fluoro-2^2-(2-((S)-1-methylpyrrolidin-2-yl)ethoxy)-9-aza-2(4,7)-pyrido[4,3-d]pyrimidina-1(1,3)-piperidina-3(1,2)-benzenacycloundecaphan-8-one] | 100 to 1000
11 | Nc1cc(Cl)c2c(c1)-c1ncc3c(nc(OCC4(CN5CCOCC5)CC4)nc3c1F)N1CCCC(CCNC(=O)CCCC2)C1 (centres unmarked) [Compound 177, 3^5-amino-3^3-chloro-2^8-fluoro-2^2-((1-(morpholinomethyl)cyclopropyl)methoxy)-9-aza-2(4,7)-pyrido[4,3-d]pyrimidina-1(1,3)-piperidina-3(1,2)-benzenacycloundecaphan-8-one] | 100 to 1000
12 | CN(C)CC1(COc2nc3c4cnc(c(F)c4n2)-c2cc(N)cc(Cl)c2CCCCC(=O)NCCC2CCCN3C2)CC1 (centres unmarked) [Compound 178, 3^5-amino-3^3-chloro-2^2-((1-((dimethylamino)methyl)cyclopropyl)methoxy)-2^8-fluoro-9-aza-2(4,7)-pyrido[4,3-d]pyrimidina-1(1,3)-piperidina-3(1,2)-benzenacycloundecaphan-8-one] | 100 to 1000
13 | CN1C[C@H](F)C[C@H]1COc1nc2c3cnc(c(F)c3n1)-c1cc(N)cc(Cl)c1CCCCC(=O)NCCC1CCCN2C1 (stereo partly drawn) [Compound 179a, 3^5-amino-3^3-chloro-2^8-fluoro-2^2-(((2S,4R)-4-fluoro-1-methylpyrrolidin-2-yl)methoxy)-9-aza-2(4,7)-pyrido[4,3-d]pyrimidina-1(1,3)-piperidina-3(1,2)-benzenacycloundecaphan-8-one] | 100 to 1000
14 | Nc1cc2c(c(Cl)c1F)CCCCC(=O)NCCC1(O)CCCN(C1)c1nc(OC[C@@]34CCCN3C[C@H](F)C4)nc3c(F)c-2ccc13 (stereo partly drawn) [Compound 180a, 3^5-amino-3^3-chloro-2^8,3^4-difluoro-2^2-(((2R,7aS)-2-fluorotetrahydro-1H-pyrrolizin-7a(5H)-yl)methoxy)-13-hydroxy-9-aza-2(4,7)-quinazolina-1(1,3)-piperidina-3(1,2)-benzenacycloundecaphan-8-one] | 100 to 1000
15 | Nc1cc2c(c(C(F)(F)F)c1)CCCCC(=O)NCCC1CCCN(C1)c1nc(OC[C@@]34CCCN3C[C@H](F)C4)nc3c(F)c-2ncc13 (stereo partly drawn) [Compound 181a, 3^5-amino-2^8-fluoro-2^2-(((2R,7aS)-2-fluorotetrahydro-1H-pyrrolizin-7a(5H)-yl)methoxy)-3^3-(trifluoromethyl)-9-aza-2(4,7)-pyrido[4,3-d]pyrimidina-1(1,3)-piperidina-3(1,2)-benzenacycloundecaphan-8-one] | 1000 to 10000
16 | Nc1cc2c(c(Cl)c1F)CCCCC(=O)NCC1COCCN(C1)c1nc(OC[C@@]34CCCN3C[C@H](F)C4)nc3c(F)c-2ncc13 (stereo partly drawn) [Compound 182a, 3^5-amino-3^3-chloro-2^8,3^4-difluoro-2^2-(((2R,7aS)-2-fluorotetrahydro-1H-pyrrolizin-7a(5H)-yl)methoxy)-9-aza-1(4,6)-oxazepana-2(4,7)-pyrido[4,3-d]pyrimidina-3(1,2)-benzenacyclodecaphan-8-one] | 100 to 1000
17 | Nc1cc2c(c(Cl)c1F)CCCCC(=O)NCCC1(O)CCCN(C1)c1nc(OC[C@@]34CCCN3C[C@H](F)C4)nc3c(F)c-2c(F)cc13 (stereo partly drawn) [Compound 183a, 3^5-amino-3^3-chloro-2^6,2^8,3^4-trifluoro-2^2-(((2R,7aS)-2-fluorotetrahydro-1H-pyrrolizin-7a(5H)-yl)methoxy)-1^3-hydroxy-9-aza-2(4,7)-quinazolina-1(1,3)-piperidina-3(1,2)-benzenacycloundecaphan-8-one] | 100 to 1000
18 | Nc1cc2c(c(Cl)c1F)CCCCC(=O)NCC1COCCN(C1)c1nc(OC[C@@]34CCCN3C[C@H](F)C4)nc3c(F)c-2c(F)cc13 (stereo partly drawn) [Compound 184a, 3^5-amino-3^3-chloro-2^6,2^8,3^4-trifluoro-2^2-(((2R,7aS)-2-fluorotetrahydro-1H-pyrrolizin-7a(5H)-yl)methoxy)-9-aza-1(4,6)-oxazepana-2(4,7)-quinazolina-3(1,2)-benzenacyclodecaphan-8-one] | 100 to 1000
19 | Nc1cc2c(c(Cl)c1F)CCCCC(=O)NCCC1COCCN(C1)c1nc(OC[C@@]34CCCN3C[C@H](F)C4)nc3c(F)c-2ncc13 (stereo partly drawn) [Compound 185a, 3^5-amino-3^3-chloro-2^8,3^4-difluoro-2^2-(((2R,7aS)-2-fluorotetrahydro-1H-pyrrolizin-7a(5H)-yl)methoxy)-9-aza-1(4,6)-oxazepana-2(4,7)-pyrido[4,3-d]pyrimidina-3(1,2)-benzenacycloundecaphan-8-one] | 100 to 1000
20 | Nc1cc2c(c(Cl)n1)CCCCC(=O)NCCC1CCCN(C1)c1nc(OC[C@@]34CCCN3C[C@H](F)C4)nc3c(F)c-2ncc13 (stereo partly drawn) [Compound 186a, 1^6-amino-1^2-chloro-2^8-fluoro-2^2-(((2R,7aS)-2-fluorotetrahydro-1H-pyrrolizin-7a(5H)-yl)methoxy)-6-aza-2(7,4)-pyrido[4,3-d]pyrimidina-1(4,3)-pyridina-3(1,3)-piperidinacycloundecaphan-7-one] | 100 to 1000
